Source: publication PMC4635624, “In vitro and in vivo single-agent efficacy of checkpoint kinase inhibition in acute lymphoblastic leukemia” (Journal of Hematology & Oncology, 2015)

Legend:
Type in all cases: cell-based, human
[1] = test system: NALM-6 (B-ALL) cells; assay: Cell viability assay (WST-1); conditions: NALM-6, 24 h exposure, TP53 wild-type
Procedure: (§1) B-/T-ALL cell lines were incubated with increasing concentrations of drug (5–1000 nM) for 24 and 48 h.
(§2) In order to assess the cell viability after treatment with PF-00477736 (Pfizer), ALL cell lines were seeded in 96-well plates at 50,000 cell/100 μl/well with increasing concentrations of drug (0.005–2 μM) for 24 and 48 h and incubated at 37 °C. Cell viability was assessed by adding WST-1 reagent (Roche Applied Science, Basel, Switzerland) to the culture medium at 1:10 dilution. Cells were incubated at 37 °C, and the optical density was measured by microplate ELISA reader at λ = 450 after 3 h. The amount of the formazan formed directly correlates to the number of metabolically active cells. All viability experiments were performed in triplicates and repeated in least two separated experiments. In ex-vivo primary leukemia cells, the effects on cell viability were assessed by counting viable and non-viable cell numbers by the trypan blue dye exclusion method. Cells were seeded in six-well plates at 500,000 cell/1 ml with increasing concentrations of drug (0.1, 0.5, and 1 μM) for 24 h and incubated at 37 °C. Cellular viability was calculated as a percentage of the viable cells compared to the untreated controls (DMSO 0.1 %).

[2] = test system: RPMI-8402 (T-ALL) cells; assay: Cell viability assay (WST-1); conditions: RPMI-8402, 24 h exposure, p53 mutated
Procedure: as §1, §2

[3] = test system: B- and T-ALL cell lines; assay: Annexin V/PI staining of apoptotic cells; conditions: 0.1, 0.5, 1 μM (0.05, 0.1, 0.2 μM for BV-173 and RPMI-8402), 24 and 48 h; proportional to dose and exposure time
Procedure: In order to assess whether cytotoxicity was correlated to increased susceptibility to apoptosis, B-/T-ALL cell lines were incubated with increasing concentrations of drug (0.1, 0.5, and 1 μM and 0.05, 0.1, and 0.2 μM only for BV-173 and RPMI-8402, respectively) for 24 and 48 h. […] The induction of apoptosis by PF-00477736 was also assessed by the detection of poly (ADP-ribose) polymerase (PARP) cleavage by Western blot analysis.
According to the WST-1 results, three different increasing concentrations of PF-00477736 were used to treat leukemia cells lines in order to detect and discriminate apoptotic, necrotic and dead cells. Cell lines were seeded in 12-well plates at 500,000 cell/1 ml with increasing concentrations of drug (0.1, 0.5 and 1 μM and 0.05, 0.1 and 0.2 μM only for BV-173 and RPMI-8402) for 24 and 48 h and incubated at 37 °C. Following the treatment, cells were harvested and stained with Annexin V/PI according to the manufacturer’s instruction (Roche). The percentage of Annexin V-PI-positive cells was determined within 1 × 10^4 cells of the population by flow cytometry (FACSCanto II, BD Biosciences Pharmingen, San Jose, CA, USA). The mean percentage of Annexin V-PI-positive cells and standard error measurement was calculated from at least two separate experiments.

[4] = test system: Chk1 pathway (Chk1-Cdc25-Cdc2) in BV-173 and NALM-6 cells; assay: Western blot analysis of Chk1 pathway
Excerpt: In order to assess whether PF-00477736 efficiently targeted Chk1 pathway, we examined the changes in the downstream phosphorylation of the phosphatase Cdc25C and cyclin-dependent kinase, Cdc2. Moreover, Chk1 itself and γ-H2A.X, which is a marker of stalling replication forks and checkpoint abrogation-induced apoptosis, have been assessed. Functional analyses were initially performed on the most sensitive (BV-173) and the most resistant (NALM-6) B-ALL cell lines, as determined by the viability and apoptosis analyses. Specifically, BV-173 cells were treated with 0.05, 0.1, and 0.2 μM and NALM-6 with 0.1, 0.5, and 1 μM of PF-00477736 for 24 h (Fig. 3a). In the second analysis, BV-173 and NALM-6 cells were treated with the dose of PF-00477736 that goes near to the IC50 (0.1 μM for BV-173 and 1 μM for NALM-6) for 18, 24, 30, and 48 h (Fig. 3b). Thereafter, the same molecular targets have been assessed on all B- and T-ALL cell lines using the dose that goes near to the IC50 (Additional file 1: Figure S4). Active Chk1 phosphorylates Cdc25C at serine 216 throughout the interphase and upon G2 checkpoint activation. This leads to the nuclear export of Cdc25C and its subsequent cytoplasmic sequestration by 14-3-3 protein, which prevents the activation of the downstream target of Cdc25C, the cyclin B/Cdc2 kinase that is responsible for G2/M transition. […] Although the increment of the phosphorylated forms of Chk1 (Ser317 and Ser345) as a consequence of genomic damage amplification, the complete inhibition of Chk1 functionality was confirmed by the progressive reduction of the auto-phosphorylated form of Chk1 (Ser296) in an early time point analysis.
To gain insight into the molecular mechanisms responsible for cell death following treatment, functional analyses by Western blot were performed. Leukemia cell lines were plated in six-well plates at 500,000 cell/1 ml with increasing concentrations of drug for 24 h and incubated at 37 °C. After the treatment, the cells were collected and lysate using a specific buffer made of KH2PO4 0.1 M (pH 7.5), Igepal 1 % (NP-40), β-glicerofosfato 0.1 mM, and complete protease inhibitor cocktail 1× (Roche Diagnostics). […] Finally, all these antibodies were detected using the enhanced chemiluminescence kit ECL (GE) and the compact darkroom ChemiDoc-It (UVP).

## Cn1cc(-c2[nH]c3cc(NC(=O)[C@H](N)C4CCCCC4)cc4c3c2C=NNC4=O)cn1 [PF-00477736]
[1]
  IC50: 1420 nM
[2]
  IC50: 57.4 nM
[3]
  apoptosis (Annexin V/PI-positive cells): significant increase of apoptosis
[4]; BV-173 0.05-0.2 μM, NALM-6 0.1-1 μM, 24 h
  phosphorylated forms of Chk1 (Ser317 and Ser345): dose-dependently increased
[4]; Western blot and immunofluorescence, 18, 24, 30, 48 h at dose near IC50
  γ-H2A.X level: time-dependently increase of γ-H2A.X
[4]; after 3 h of treatment, BV-173 and NALM-6, vs untreated
  auto-phosphorylated form of Chk1 (Ser296): drastically reduced
[4]; dose- and time-dependent, BV-173 0.05-0.2 μM, NALM-6 0.1-1 μM
  phosphorylated Cdc25c (Ser216) and Cdc2 (Tyr 15) levels: decreased levels of phosphorylated Cdc25c (Ser216) and Cdc2 (Tyr 15)
